These results are taken from patent publication US5260286A, “2-piperidinecarboxylic acid derivatives useful as NMDA receptor antagonists” (Japan Tobacco, Inc., priority 1992, dated 1993).

Series [1] can be described thus: Lethality of NMDA in mice. To be noted: mouse, in vivo. The arrangement: species or system male Swiss-Webster mice. The protocol: (§1) According to the method described by Ferkany et al. (1988), the test compounds were administered ip to four male Swiss-Webster mice (26-34 g) each, following 30 minutes later, 200 mg/kg of NMDA was administered to the mice each. […] Those compounds that protected three or more of the mice at any of the doses were evaluated further by determining the ED50 values using three or more doses with the eight mice per dose. The ED50 was estimated by the method of Litchfield and Wilcoxin (1949). Water-soluble compounds were dissolved in distilled water and administered in a volume of 10 mL/kg. Water-insoluble compounds were suspended in an aqueous solution of 0.5% methyl cellulose and administered in a volume of 20 mL/kg.

For a further series, the target named is NMDA receptor. Kind of series: In vitro binding assay, inhibition of [^3 H]CGS-19755 binding at the NMDA receptor site (semipurified synaptic membranes from rat forebrain). The arrangement: species or system Adult male Sprague-Dawley rats. To be noted: 10 nM [^3 H]CGS-19755, 15 minutes at 4° C., 50 mM Tris-citrate pH 7.1; read-out: Ki [^3 H]CGS19755. The protocol:
The compounds of the invention were tested for their ability to inhibit [^3 H]CGS-19755 binding. Semipurified synaptic membranes were prepared according to the method of Bristow et al. (1986) with minor modifications. Adult male Sprague-Dawley rats were decapitated, and the forebrains were removed, weighed and homogenized in 20 volumes of 0.32M sucrose. The homogenate was centrifuged at 27,000×G for 15 minutes. The pellet was resuspended in 20 volumes of distilled water followed by centrifugation at 8000×G for […]. Both the supernatant and the buffy coat layer, removed with 5 mM Tris-Cl (2 mL), pH 7.8, were pooled and centrifuged at 27,000×G for 15 minutes. The supernatant was removed and the pellet was covered with a small amount of 5 mM Tris-HCl and stored at -20° C. for least 18 hours. Membranes were then washed four times in 50 mM Tris-citrate, pH 7.1, and finally resuspended in the same buffer. This suspension was used for the binding assay immediately or frozen for subsequent use.
Aliquots of membranes (800 μl) were incubated with 10 nM [^3 H]CGS-19755 (100 μl) and varying concentrations of the test compounds (100 μl) for 15 minutes at 4° C. Then a filtration assay was used. The samples were filtered over glass fiber filters using a Brandel Cell Harvester. […]
Ki values were calculated from the equation: [formula]

The test system of the next series is NMDA-Induced Lethality. As to the kind of experiment: In vivo protection in the mouse against NMDA-induced lethality. The note with it: ip; for ED50: Mus musculus, read-out: PD50. The arrangement: species or system male Swiss-Webster mice. The protocol: as §1
The test system of a further series is NMDA recognition site. To be noted: Lehman et al., 1988; Murphy et al., 1987; cited from earlier work.
[2] abbreviates: 30 minutes before 200 mg/kg NMDA, Litchfield and Wilcoxin.

Like-named read-outs stand apart in the source and are kept apart here.

One may read the LD50 as the dose expected to kill half of the subjects tested. Higher therefore signals a less toxic substance. In general, Ki refers to the dissociation constant of the complex between target and ligand, obtained from inhibition or displacement.

Turning to `CN[C@H](CC(=O)O)C(=O)O` [NMDA, N-methyl-D-aspartate], the mortality in series [1] (200 mg/kg NMDA, read-out: mice died at 200 mg/kg NMDA) is about 90%. The compound also returned an LD50 in series [1] (mice) of 164 mg/kg.

For `O=C(O)C1C/C(=C/P(=O)(O)O)CCN1` (centres unmarked) [E-4-(phosphonomethylidene)-2-piperidinecarboxylic acid], the inhibition constant Ki at NMDA receptor came to 0.59 µM. Also, the ED50 with NMDA-Induced Lethality came out at 1.1 mg/kg. In the series on NMDA-Induced Lethality (setting [2]), the “Confidence Limits (of PD50)” value is 0.5-2.2 and the Slope is listed as 1.96.

In the case of `O=C(O)[C@H]1C[C@@H](CP(=O)(O)O)CCN1` (relative stereo) [CGS-19755, cis-4-(phosphonomethyl)-2-piperidinecarboxylicacid], the Ki at NMDA receptor worked out at 0.112 µM. The ED50 in the series with NMDA-Induced Lethality (30 minutes before 200 mg/kg NMDA, eight mice per dose, Litchfield and Wilcoxin) turned out to be 2 mg/kg. Further, in the series with NMDA-Induced Lethality (setting [2]), the “Confidence Limits (of PD50)” value is listed as 1.2-3.6 and the Slope turned out to be 2.46. Besides, in the series with NMDA recognition site, the “antagonists at the NMDA recognition site” value was “high-affinity antagonists”.
